Read-outs that look alike come from different tables or passages of the source.

For data set [1], the target named is T1, 5-HT2B receptor (Homo sapiens, UniProt P41595).
T1 construct: expressed in transfected cells; host or cells: HEK293, stably transfected
Description: cell-based. The data set is classed as cell-based. The conditions noted are these: Ca2+ flux; for Emax: HEK293, agonist, read-out: 5-HT2B % Act @ Max Dose; for EC50: HEK293. In a few lines: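 FLIPR Tetra fluorescence read-out of calcium flux after compound addition. Receptor-expressing stable lines were used (HEK293 for 2A/2B; CHO with Gα15 for 1A), dye-loaded with Fluo-4 Direct and 2.5 mM final probenecid, 50 min at 37 °C.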
For orientation: A change in cytosolic calcium serves as a functional read-out for many receptors and channels.

The nature of data set [2]: in vitro. The data set is classed as in vitro ADME, human. The conditions noted are these: for microsomal CLint: read-out: Intrinsic clearance (Clint); for half-life: read-out: half-life (t1/2).
Data set [3] deals with T2, 5-HT1B receptor (Homo sapiens, UniProt P28222).
T2 construct: expressed in transfected cells
Description: cAMP accumulation functional assay at 5-HT1B. The data set is classed as cell-based. The conditions noted are these: agonist, cAMP accumulation; for Emax: max dose, read-out: 5-HT1B % Act @ Max Dose. In outline: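 Agonist activity measured as cAMP accumulation in cells stably transfected with human 5-HT1B. Cells incubated 60 min at RT, then detection reagent added for a further 60 min at RT before plate reading.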
(Cyclic AMP is a second messenger, typically raised through Gs and lowered through Gi signalling.)

The target in data set [4] is T3, 5-HT2A receptor (Homo sapiens, UniProt P28223). As to the kind of experiment: cell-based. The format is cell-based. Conditions: beta-arrestin recruitment; for Emax: read-out: 5-HT2A Arrestin % Act @ Max Dose. In a few lines: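 PathHunter β-arrestin recruitment (enzyme fragment complementation): 5-HT2A fused to ProLink donor in cells co-expressing β-arrestin–β-galactosidase acceptor, seeded and held at 37° C before testing. Chemiluminescent read-out; agonist % activity = (sample RLU − vehicle)/(max control ligand − vehicle) × 100.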
On the technique in general: Activated receptors often draw arrestin, which recruitment assays turn into a signal.

Data set [5] concerns the target T3, 5-HT2A receptor. As to the kind of experiment: cell-based. The format is cell-based. Also noted: expressed in transfected cells; host or cells: HEK293, stably transfected. Conditions: Ca2+ flux; for Emax: HEK293, agonist, HEK293, max dose, read-out: 5-HT2A % Act @ Max Dose; for EC50: agonist, HEK293. In a few lines: (§1)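 Receptor agonism was assessed as intracellular calcium mobilization in stably transfected cells, with CHO cells additionally carrying Gα15 for the 5-HT1A readout. Calcium was monitored with Fluo-4 Direct dye.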

Data set [6] deals with T4, 5-HT1A receptor (Homo sapiens, UniProt P08908).
T4 construct: expressed in transfected cells; host or cells: CHO cells, stably transfected
T4 sequence (P08908 1-422): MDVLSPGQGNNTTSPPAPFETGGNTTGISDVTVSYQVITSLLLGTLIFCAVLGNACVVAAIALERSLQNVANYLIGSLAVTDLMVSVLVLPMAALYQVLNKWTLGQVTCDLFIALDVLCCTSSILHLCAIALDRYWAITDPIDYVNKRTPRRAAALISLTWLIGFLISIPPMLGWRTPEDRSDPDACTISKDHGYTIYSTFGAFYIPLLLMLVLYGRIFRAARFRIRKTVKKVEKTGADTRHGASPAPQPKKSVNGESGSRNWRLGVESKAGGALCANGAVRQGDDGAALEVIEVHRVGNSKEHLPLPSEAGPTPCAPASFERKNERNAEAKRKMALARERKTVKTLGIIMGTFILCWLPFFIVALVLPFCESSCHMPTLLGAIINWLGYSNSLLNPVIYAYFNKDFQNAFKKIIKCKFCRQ
Description: cell-based. The conditions noted are these: agonist, Ca2+ flux; for Emax: CHO, CHO cells with Gα15, max dose, read-out: 5-HT1A % Act @ Max Dose; for EC50: CHO cells with Gα15. In a few lines:
as §1

Data set [7] in a line: in vitro. The data set is classed as in vitro ADME, mouse. The conditions noted are these: for microsomal CLint: read-out: Intrinsic clearance (Clint); for half-life: read-out: half-life (t1/2). The source says:
MLM Stability Pooled MLM from male CD-1 mice (BIOIVT M00501) were used.

A short description of data set [8]: in vitro. The data set is classed as in vitro ADME, rat. The conditions noted are these: for microsomal CLint: read-out: Intrinsic clearance (Clint); for half-life: read-out: half-life (t1/2). The source says:
RLM Stability Pooled RLM from male Sprague-Dawley rats (Xenotech R1000) were used.

Setting [9] is: human, microsomes, HLM 0.50 mg/mL, NADPH 1 mM, 1 μM compound, pH 7.4, 37° C., 60 min.
Setting [10] is: mouse, microsomes, MLM (male CD-1) 0.50 mg/mL, NADPH 1 mM, 1 μM compound, pH 7.4, 37° C., 60 min.
Where [11] appears, read: rat, microsomes, RLM (male Sprague-Dawley) 0.50 mg/mL, NADPH 1 mM, 1 μM compound, pH 7.4, 37° C., 60 min.
[12] abbreviates: HLM 0.50 mg/mL, NADPH 1 mM, 1 μM compound, pH 7.4, 37° C., 60 min.
Setting [13] is: MLM (male CD-1) 0.50 mg/mL, NADPH 1 mM, 1 μM compound, pH 7.4, 37° C., 60 min.
Setting [14] is: RLM (male Sprague-Dawley) 0.50 mg/mL, NADPH 1 mM, 1 μM compound, pH 7.4, 37° C., 60 min.

T1 sequence (P41595 whole entry): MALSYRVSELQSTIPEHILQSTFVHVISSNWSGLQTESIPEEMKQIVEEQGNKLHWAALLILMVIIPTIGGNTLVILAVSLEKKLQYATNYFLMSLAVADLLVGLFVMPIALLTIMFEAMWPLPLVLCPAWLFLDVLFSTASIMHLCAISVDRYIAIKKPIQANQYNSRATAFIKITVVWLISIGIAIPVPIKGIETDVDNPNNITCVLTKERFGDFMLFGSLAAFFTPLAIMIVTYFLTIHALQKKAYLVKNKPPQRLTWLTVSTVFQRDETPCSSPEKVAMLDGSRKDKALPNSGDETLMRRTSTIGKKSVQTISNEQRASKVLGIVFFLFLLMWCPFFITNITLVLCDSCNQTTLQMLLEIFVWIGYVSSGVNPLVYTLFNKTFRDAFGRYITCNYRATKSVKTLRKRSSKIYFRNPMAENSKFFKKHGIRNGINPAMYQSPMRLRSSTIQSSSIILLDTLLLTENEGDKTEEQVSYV
T2 sequence (P28222 whole entry): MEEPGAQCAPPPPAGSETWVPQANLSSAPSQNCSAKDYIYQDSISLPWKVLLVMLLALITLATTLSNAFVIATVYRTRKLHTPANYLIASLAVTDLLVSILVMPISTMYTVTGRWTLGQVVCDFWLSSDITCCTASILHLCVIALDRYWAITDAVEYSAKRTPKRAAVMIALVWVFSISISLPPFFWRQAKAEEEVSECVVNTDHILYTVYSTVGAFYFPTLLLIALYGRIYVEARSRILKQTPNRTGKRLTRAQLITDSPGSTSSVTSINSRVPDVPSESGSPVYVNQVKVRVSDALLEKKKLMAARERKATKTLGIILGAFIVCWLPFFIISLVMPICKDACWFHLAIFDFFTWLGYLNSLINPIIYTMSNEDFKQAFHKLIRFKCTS
T3 sequence (P28223 whole entry, the tested form may be a part): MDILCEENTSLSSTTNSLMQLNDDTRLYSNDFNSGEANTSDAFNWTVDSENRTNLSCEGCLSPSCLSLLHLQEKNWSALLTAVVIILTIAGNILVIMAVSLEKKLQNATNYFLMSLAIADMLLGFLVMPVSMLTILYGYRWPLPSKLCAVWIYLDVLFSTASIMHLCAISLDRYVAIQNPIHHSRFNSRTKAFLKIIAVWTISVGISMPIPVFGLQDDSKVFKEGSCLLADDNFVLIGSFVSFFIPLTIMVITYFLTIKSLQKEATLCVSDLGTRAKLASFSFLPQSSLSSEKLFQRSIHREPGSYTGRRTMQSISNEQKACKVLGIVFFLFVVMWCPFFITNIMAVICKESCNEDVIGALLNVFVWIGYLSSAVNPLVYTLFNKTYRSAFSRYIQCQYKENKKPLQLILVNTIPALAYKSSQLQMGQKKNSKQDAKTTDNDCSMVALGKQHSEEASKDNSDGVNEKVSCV

As a reminder, the EC50 is the concentration needed to bring the measured effect to its halfway point. As for `CCN(CC)C(=O)[C@@H]1C=C2c3cccc4[nH]cc(c34)C[C@H]2N(Cc2ccc(Cl)cc2)C1` [Compound 50, (6aR,9R)-7-(4-chlorobenzyl)-N,N-diethyl-4,6,6a,7,8,9-hexahydroindolo[4,3-fg]quinoline-9-carboxamide], the Emax came to 2.94% in data set [1] (HEK293, max dose); 41.9% in data set [3]; 41.2% in data set [4] (agonist, max dose); 88.2% in data set [5]; 8.23% in data set [6]. Further, the EC50 in data set [1] (agonist) is over 10000 nM; in data set [3], over 10000 nM; in data set [4] (agonist, PathHunter, read-out: 5-HT2A Arrestin EC50) it was 34.7 nM; in data set [5], 3240 nM; in data set [6] it was over 10000 nM. In addition, the microsomal CLint in data set [2] (setting [9]) was 65 µL/min/mg. Also, the half-life in data set [2] (setting [9]) was 21.3 min.

For `CCN(CC)C(=O)[C@@H]1C=C2c3cccc4[nH]cc(c34)C[C@H]2N(Cc2cocn2)C1` [Compound 73, (6aR,9R)—N,N-diethyl-7-(oxazol-4-ylmethyl)-4,6,6a,7,8,9-hexahydroindolo[4,3-fg]quinoline-9-carboxamide], the Emax in data set [1] (HEK293, max dose) turned out to be 60.9%; in data set [3], 73.6%; in data set [5], 92.1%; in data set [6], 78.7%. Besides, the EC50 worked out at 375 nM in data set [1] (agonist), 1370 nM in data set [3], 47.6 nM in data set [5] and 586 nM in data set [6]. The microsomal CLint in data set [2] (setting [9]) was determined as 45.6 µL/min/mg; in data set [7] (setting [10]), 76.7 µL/min/mg; in data set [8] (setting [11]) it was 51.8 µL/min/mg. Also, the half-life came out at 30.4 min in data set [2] (setting [9]), 18.1 min in data set [7] (setting [10]) and 26.8 min in data set [8] (setting [11]).

On to `CCN(CC)C(=O)[C@@H]1C=C2c3cccc4[nH]cc(c34)C[C@H]2N(Cc2cccc(C#N)c2)C1` [Compound 76, (6aR,9R)—N,N-diethyl-7-(3-cyanobenzyl)-4,6,6a,7,8,9-hexahydroindolo[4,3-fg]quinoline-9-carboxamide], for which the Emax came to 0.93% in data set [1] (HEK293, max dose); 93.4% in data set [3]; 82.1% in data set [5]; 77% in data set [6]. Further, the concentration for a half-maximal effect (EC50) in data set [1] (agonist) is over 10000 nM; in data set [3], 1490 nM; in data set [5] it was 6620 nM; in data set [6] it was 25400 nM. Besides, the microsomal CLint in data set [2] (setting [9]) came out at 64.1 µL/min/mg; in data set [7] (setting [10]), 576 µL/min/mg; in data set [8] (setting [11]), 114 µL/min/mg. In addition, the half-life in data set [2] (setting [9]) was determined as 21.6 min; in data set [7] (setting [10]) it was 2.4 min; in data set [8] (setting [11]), 12.1 min.

On to `CCN(CC)C(=O)[C@@H]1C=C2c3cccc4[nH]cc(c34)C[C@H]2N(Cc2ccon2)C1` [Compound 70, (6aR,9R)—N,N-diethyl-7-(isoxazol-3-ylmethyl)-4,6,6a,7,8,9-hexahydroindolo[4,3-fg]quinoline-9-carboxamide], for which the Emax was 34.4% in data set [1] (HEK293, max dose); 17.8% in data set [3]; 84.7% in data set [5]; 58.6% in data set [6]. In addition, the EC50 was 449 nM in data set [1] (agonist), over 10000 nM in data set [3], 38 nM in data set [5] and 62300 nM in data set [6]. The figures for the microsomal CLint in data set [2] (setting [9]), in data set [7] (setting [10]) and in data set [8] (setting [11]) were 54.3 µL/min/mg, 154 µL/min/mg and 47.9 µL/min/mg, respectively. Besides, the half-life in data set [2] (setting [9]) was determined as 25.5 min; in data set [7] (setting [10]), 9 min; in data set [8] (setting [11]) it was 28.9 min.

As to `CC[C@@H](C)NC(=O)[C@@H]1C=C2c3cccc4[nH]cc(c34)C[C@H]2N(C)C1` [Int8], the Emax in data set [1] (HEK293, max dose) is 17.7%; in data set [4] (agonist, max dose) it was 46.1%; in data set [5], 96.2%; in data set [6], 90.2%. For the same molecule, the “half-life (t1/2)” value is given as 64.9 min in data set [2] (human, microsomes, pH 7.4); 39.9 min in data set [7] (mouse, microsomes, pH 7.4); 99.5 min in data set [8] (rat, microsomes, pH 7.4). Further, the “5-HT2A arrestin agonist class” value in data set [4] is “partial agonists”.

With `CCN(C)C(=O)[C@@H]1C=C2c3cccc4[nH]cc(c34)C[C@H]2N(Cc2ccccc2)C1` [Compound 85, (6aR,9R)-7-benzyl-N-ethyl-N-methyl-4,6,6a,7,8,9-hexahydroindolo[4,3-fg]quinoline-9-carboxamide], the Emax in data set [1] (HEK293, max dose) was found to be 3.73%; in data set [5] it was 60.6%; in data set [6] it was 36.8%. In addition, the EC50 is over 10000 nM in data set [1] (agonist), 500 nM in data set [5] and over 10000 nM in data set [6]. The microsomal CLint in data set [2] (setting [9]) was 95 µL/min/mg; in data set [7] (setting [10]), 184 µL/min/mg; in data set [8] (setting [11]), 131 µL/min/mg. For the same molecule, the half-life in data set [2] (setting [9]) is 14.6 min; in data set [7] (setting [10]), 7.5 min; in data set [8] (setting [11]), 10.5 min.

For `C=CCN1C[C@H](C(=O)N[C@H](C)CC)C=C2c3cccc4[nH]cc(c34)C[C@H]21` [Compound 8, (6aR,9R)-7-allyl-N—((R)-sec-butyl)-4,6,6a,7,8,9-hexahydroindolo[4,3-fg]quinoline-9-carboxamide], the Emax in data set [1] (HEK293, max dose) was determined as 91.6%; in data set [4] (agonist, max dose), 112%; in data set [5], 99.2%; in data set [6], 116%. Further, the “stability in HLM” value in data set [2] is “much lower stability (higher clearance)”. Besides, the “half-life (t1/2)” value in data set [2] (setting [12]) was found to be 7.9 min; in data set [7] (setting [13]) it was 3.7 min; in data set [8] (setting [14]), 7.7 min. For the same molecule, the “stability in MLM” value in data set [7] is given as “much lower stability (higher clearance)”. Besides, in data set [4], the “5-HT2A arrestin agonist class” value was “full agonists”. Moreover, the “stability in RLM” value in data set [8] is on record as “much lower stability (higher clearance)”.

On to `CCN(CC)C(=O)[C@@H]1C=C2c3cccc4[nH]cc(c34)C[C@H]2N(CCc2ccccc2OC)C1` [Compound 11, (6aR,9R)—N,N-diethyl-7-(2-methoxyphenethyl)-4,6,6,7,8,9-hexahydroindolo[4,3-fg]quinoline-9-carboxamide], for which the “5-HT2B % Act @ Max Dose” value in data set [1] (agonist, HEK293, max dose) came out at 2.5%. Also, the “stability in HLM” value in data set [2] is on record as “much lower stability (higher clearance)”. The “Intrinsic clearance (Clint)” value amounted to 584.336 µL/min/mg in data set [2] (setting [12]), 1512.047 µL/min/mg in data set [7] (setting [13]) and 1195.423 µL/min/mg in data set [8] (setting [14]). Moreover, the “half-life (t1/2)” value amounted to 2.372 min in data set [2] (setting [12]), 0.917 min in data set [7] (setting [13]) and 1.159 min in data set [8] (setting [14]). Further, in data set [7], the “stability in MLM” value was “much lower stability (higher clearance)”. Further, in data set [4] (agonist, max dose), the “5-HT2A Arrestin % Act @ Max Dose” value came out at 54.26%. Besides, in data set [8], the “stability in RLM” value is “much lower stability (higher clearance)”.

For the origin of these results see patent US20260317319A1, “NOVEL ERGOLINES AND METHODS OF TREATING MOOD DISORDERS” (Gilgamesh Pharma Inc., priority 2023, published 2026).
